According to patent publication US4118482A (priority 1977, dated 1978):
Where two headings read alike, the source gives them in different places.

Tests used:
[1] = tested on: advanced Ridgeway osteogenic sarcoma; details: cited from earlier work
ADVANCED P388 LEUKEMIA = assay: Advanced P388 leukemia in mice, treatment Q4D x 3 at days 5, 9, 13; type: in vivo; details: 0.6 Mg/Kg/Inj., Q4D x 3 days 5, 9, 13, advanced P388
Text: (§1) The National Cancer Institute conducted a screening test on samples of both Azetomicin I (3' prolyl, 3' azet) and Azetomicin II (3', 3' azet) as well as on Dactinomycin (3', 3' prolyl) that is also known as Actinomycin D or C1. The Azetomicin and Dactinomycin molecules are identical, with the exception of the 3' amino acid position on the peptides, wherein the 3' positions, in the case of Dactinomycin are both prolyl; in the case of the Azetomicin I are prolyl and azetidine-2-carboxyl; and in the cae of Azetomicin II are both azetidine-2-carboxyl.
ADVANCED P388 LEUKEMIA : Q4D × 3 AT DAYS 5, 9, 13 TREATMENT

[2] = Storage stability in aqueous solution; type: physicochemical; details: 0°-25° C, pH range of 5-8, maintained in the dark
Method: The major products of interest were determined to be Azetomicin I and Azetomycin II. They were stable after storage at 0°-25° C in aqueous solution in the pH range of 5-8 for at least 5 days when maintained in the dark.

[3] = tested on: Bacillus subtilis, Staphylococcus aureus and Staphylococcus albus; assay: Inhibition of bacterial growth (cross section of gram-positive and gram-negative bacteria); type: cell-based
[4] = Toxicity per mg compared with Actinomicin D
P388 leukemia = P388 leukemia in mice, treatment QD at days 1-9 (National Cancer Institute screen); type: in vivo; details: for 5 ILS* (increased life span) / 60 DAY "CURES" / SURVIAL TIME MEDIAN: QD days 1-9, P388 mice; for SURVIAL TIME MEDIAN: controls 10 days
Text: as §1
P 388 LEUKEMIA : QD AT DAYS 1-9 TREATMENT

[5] = tested on: advanced Ridgeway osteogenic sarcoma; assay: Drug-induced regression of advanced Ridgeway osteogenic sarcoma in mice; type: in vivo
Method: A sample of Azetomicin I was tested on mice infected with advanced Ridgeway osteogenic sarcoma. […] Data supplied by Dr. F. Schabel and his coworkers at Southern Research Institute has been collected in Table II below, with the results from Azetomicin I testing also noted: […]

Rous sarcoma virus = assay: Development of visible tumors in chicks infected with Rous sarcoma virus, single injection; type: in vivo; details: injected once; compared with untreated or saline injected controls
Method: In another test, both Azetomicin I and Azetomicin II, were injected once into chicks infected with Rous sarcoma virus. The development of visible tumors was decreased by over 80% as compared with untreated or saline injected controls.

[6] = schedule day 12, data of Southern Research Institute
[7] = schedule day 12, Azetomicin I testing

## CN(Cc1cnc2nc(N)nc(N)c2n1)c1ccc(C(=O)N[C@@H](CCC(=O)O)C(=O)O)cc1 [METHOTREXATE]
[1]; schedule days 12,16,20,24
  "CURES" (Number/Total): 0/10
  REGRESSION 50+%-PARTIAL (Number/Total): 0/10
  REGRESSION COMPLETE (Number/Total): 0/10

## Nc1ncn([C@@H]2O[C@H](CO)[C@@H](O)[C@H]2O)c(=O)n1 [AZACYTIDINE]
[1]; schedule days 12,16,20,24
  "CURES" (Number/Total): 0/7
  REGRESSION 50+%-PARTIAL (Number/Total): 0/7
  REGRESSION COMPLETE (Number/Total): 0/7

## CO[C@@]12[C@H](COC(N)=O)C3=C(C(=O)C(C)=C(N)C3=O)N1C[C@@H]1N[C@@H]12 [MITOMYCIN-C]
[1]; [6]
  "CURES" (Number/Total): 0/10
  REGRESSION 50+%-PARTIAL (Number/Total): 0/10
  REGRESSION COMPLETE (Number/Total): 0/10

## N[C@@H](Cc1ccc(N(CCCl)CCCl)cc1)C(=O)O [L-SARCOLYSIN]
[1]; [6]
  "CURES" (Number/Total): 4/8
  REGRESSION 50+%-PARTIAL (Number/Total): 8/8
  REGRESSION COMPLETE (Number/Total): 7/8

## O=C(O)CCCc1ccc(N(CCCl)CCCl)cc1 [CHLORAMBUCIL]
[1]; [6]
  "CURES" (Number/Total): 0/10
  REGRESSION 50+%-PARTIAL (Number/Total): 0/10
  REGRESSION COMPLETE (Number/Total): 0/10

## CN(C)/N=N/c1[nH]cnc1C(N)=O [DTIC]
[1]; [6]
  "CURES" (Number/Total): 0/10
  REGRESSION 50+%-PARTIAL (Number/Total): 0/10
  REGRESSION COMPLETE (Number/Total): 0/10

## C[C@]12C=CC(=O)C=C1CC[C@@H]1[C@@H]2C(=O)C[C@@]2(C)[C@H]1CC[C@]2(O)C(=O)CO [PREDNISONE]
[1]; schedule days 12,16,20
  "CURES" (Number/Total): 0/10
  REGRESSION 50+%-PARTIAL (Number/Total): 0/10
  REGRESSION COMPLETE (Number/Total): 0/10

## L-ASPARAGINASE
[1]; [6]
  "CURES" (Number/Total): 0/10
  REGRESSION 50+%-PARTIAL (Number/Total): 0/10
  REGRESSION COMPLETE (Number/Total): 0/10

## CC[C@]1(O)C[C@H]2CN(CCc3c([nH]c4ccccc34)[C@@](C(=O)OC)(c3cc4c(cc3OC)N(C=O)[C@H]3[C@@](O)(C(=O)OC)[C@H](OC(C)=O)[C@]5(CC)C=CCN6CC[C@]43[C@@H]65)C2)C1 [VINCRISTINE]
[1]; schedule days 12,16,20
  "CURES" (Number/Total): 0/10
  REGRESSION 50+%-PARTIAL (Number/Total): 10/10
  REGRESSION COMPLETE (Number/Total): 8/10

## O=P1(N(CCCl)CCCl)NCCCO1 (stereo not drawn) [CYCLOPHOSPHAMIDE]
[1]; [6]
  "CURES" (Number/Total): 3/8
  REGRESSION 50+%-PARTIAL (Number/Total): 8/8
  […] (Number/Total): 8/8

## Azetomicin I [AZETOMICIN-I]
ADVANCED P388 LEUKEMIA
  5 ILS* (increased life span): 270%
  60 DAY "CURES": 0
ADVANCED P388 LEUKEMIA; controls 10 days
  SURVIAL TIME MEDIAN: 37 days
[2]
  time stable after storage in aqueous solution: at least 5 days
[3]
  activity against bacterial growth relative to Actinomicin D: 70%
[4]
  toxicity/mg. compared with Actinomicin D: substantially less toxic/mg.
P388 leukemia; 0.05 Mg/Kg/Inj.
  5 ILS* (increased life span): 150%
  60 DAY "CURES": 0%
  SURVIAL TIME MEDIAN: 25 days
P388 leukemia; 0.1 Mg/Kg/Inj.
  5 ILS* (increased life span): 155%
  60 DAY "CURES": 0%
  SURVIAL TIME MEDIAN: 25.5 days
P388 leukemia; 0.2 Mg/Kg/Inj.
  5 ILS* (increased life span): ≥ 500%
  60 DAY "CURES": 60%
  SURVIAL TIME MEDIAN: ≥ 60 days
P388 leukemia; P388 leukemia mice, Table I
  activity compared with Dactinomycin (summary of Table I): clearly greater activity than both
[5]; of 10 animals treated, 12th day only injection schedule
  animals with complete regression: 10 animals
[5]; [7]
  "CURES" (Number/Total): 10/10
  REGRESSION 50+%-PARTIAL (Number/Total): 10/10
  REGRESSION COMPLETE (Number/Total): 10/10
Rous sarcoma virus
  decrease of development of visible tumors: over 80%
